Data from ChEMBL document CHEMBL1201862, “PubChem BioAssay data set” (2004).
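Test compounds were applied to cells in 96-well plates for 48 hours at 5 doses. At the GI50, growth is halved.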 Calls of active or inactive are those of the source. No stated cut-off is given here; in the data, active = GI50 up to about 1.1 µM and inactive = higher.

Legend:
Assay in all cases: NCI anticancer screen, dose series, 48 h
ACHN = tested on: ACHN
DMS-273 = tested on: DMS-273
HCC 2998 = tested on: HCC 2998
HCT-15 = tested on: HCT-15
HL-60 = tested on: HL-60
M14 = tested on: M14
MOLT-4 = tested on: MOLT-4
Malme-3M = tested on: Malme-3M
NCI-H460 = tested on: NCI-H460
OVCAR-8 = tested on: OVCAR-8
RXF 393 = tested on: RXF 393
SK-OV-3 = tested on: SK-OV-3
SW-620 = tested on: SW-620
UACC-62 = tested on: UACC-62
UO-31 = tested on: UO-31
HCT-116 = tested on: HCT-116
BT-549 = tested on: BT-549
DU-145 = tested on: DU-145
PC-3 = tested on: PC-3
T47D = tested on: T47D

Compound | GI50 (ACHN) | GI50 (DMS-273) | GI50 (HCC 2998) | GI50 (HCT-15) [µM] | GI50 (HL-60) | GI50 (M14) | GI50 (MOLT-4) | GI50 (Malme-3M) | GI50 (NCI-H460) | GI50 (OVCAR-8) | GI50 (RXF 393) | GI50 (SK-OV-3) | GI50 (SW-620) | GI50 (UACC-62) | GI50 (UO-31) | GI50 (HCT-116) | GI50 (BT-549) | GI50 (DU-145) | GI50 (PC-3) | GI50 (T47D)
O=C1CNC(=O)c2[nH]cnc2N1 | > 100 µM (inactive) | > 100 µM (inactive) | > 100 µM (inactive) | > 100 | > 100 µM (inactive) | > 100 µM (inactive) | > 100 µM (inactive) | > 100 µM (inactive) | > 100 µM (inactive) | > 100 µM (inactive) | > 100 µM (inactive) | > 100 µM (inactive) | > 100 µM (inactive) | > 100 µM (inactive) | > 100 µM (inactive) |  |  |  |  | 
CN1C(=O)CC(c2cccc(C3CC(=O)N(C)C3=O)n2)C1=O (stereo not drawn) | > 100 µM (inactive) | > 100 µM (inactive) | > 100 µM (inactive) | > 100 | > 100 µM (inactive) | > 100 µM (inactive) | > 100 µM (inactive) | > 100 µM (inactive) | > 100 µM (inactive) | > 100 µM (inactive) | > 100 µM (inactive) | > 100 µM (inactive) | > 100 µM (inactive) | > 100 µM (inactive) | > 100 µM (inactive) | > 100 µM (inactive) |  |  |  | 
CC(=O)Nc1[nH]c(=O)[nH]c(=O)c1N(C(C)=O)C(C)=O | > 100 µM (inactive) | > 100 µM (inactive) | > 100 µM (inactive) | > 100 | > 100 µM (inactive) | > 100 µM (inactive) | > 100 µM (inactive) | > 100 µM (inactive) | > 100 µM (inactive) | > 100 µM (inactive) | > 100 µM (inactive) |  | > 100 µM (inactive) | > 100 µM (inactive) | > 100 µM (inactive) | > 100 µM (inactive) |  |  |  | 
CC(=O)NC(CCCCNC(=O)N(C)N=O)C(=O)NCc1ccccc1 (stereo not drawn) | > 100 µM (inactive) | > 100 µM (inactive) | > 100 µM (inactive) | > 100 |  | > 100 µM (inactive) | > 100 µM (inactive) | > 100 µM (inactive) | 79.6 µM (inactive) | > 100 µM (inactive) | > 100 µM (inactive) | > 100 µM (inactive) | > 100 µM (inactive) | > 100 µM (inactive) | > 100 µM (inactive) | > 100 µM (inactive) |  |  |  | 
Cc1cc2c(cc1C)C(=O)c1ncccc1C2=O | 37.2 µM (inactive) |  | 33.4 µM (inactive) | 26.5 | 11.2 µM (inactive) | 23.6 µM (inactive) | 20.4 µM (inactive) | 7.85 µM (inactive) | 7.91 µM (inactive) | 31.9 µM (inactive) | 33.2 µM (inactive) | 87.9 µM (inactive) | 30.9 µM (inactive) | 30.3 µM (inactive) | 37.3 µM (inactive) | 19.9 µM (inactive) | 40.9 µM (inactive) | 24.2 µM (inactive) | 29 µM (inactive) | 34.8 µM (inactive)
FC(F)(F)c1cccc(-c2nc3nc(Cl)c(Cl)nc3[nH]2)c1 | 2.63 µM (inactive) |  | 3.11 µM (inactive) | 2.64 | 1.69 µM (inactive) | 3.42 µM (inactive) | 2.18 µM (inactive) | 1.73 µM (inactive) | 2.01 µM (inactive) | 3.06 µM (inactive) | 3.1 µM (inactive) | 2.86 µM (inactive) | 3.72 µM (inactive) | 0.562 µM (active) | 2.24 µM (inactive) | 2.09 µM (inactive) | 3.18 µM (inactive) | 3.29 µM (inactive) | 2.5 µM (inactive) | 1.29 µM (inactive)
O=[N+]([O-])c1ccc(C2=NOC(c3ccc(Cl)cc3)N2C23CC4CC(CC(C4)C2)C3)cc1 (stereo not drawn) | 9.71 µM (inactive) |  | 64.1 µM (inactive) | 97.1 | 6.46 µM (inactive) | > 100 µM (inactive) | 33.3 µM (inactive) | > 100 µM (inactive) | > 100 µM (inactive) | > 100 µM (inactive) | 1.86 µM (inactive) | > 100 µM (inactive) | > 100 µM (inactive) | > 100 µM (inactive) | > 100 µM (inactive) | 28.1 µM (inactive) | > 100 µM (inactive) | > 100 µM (inactive) | > 100 µM (inactive) | 35.2 µM (inactive)
CSCCC(C(=O)O)N(CC1(O)OCC(O)C(O)C1O)N=O (stereo not drawn) | > 100 µM (inactive) | > 100 µM (inactive) | > 100 µM (inactive) |  | > 100 µM (inactive) | > 100 µM (inactive) | > 100 µM (inactive) | > 100 µM (inactive) | > 100 µM (inactive) | > 100 µM (inactive) | > 100 µM (inactive) | > 100 µM (inactive) | > 100 µM (inactive) | > 100 µM (inactive) | > 100 µM (inactive) | > 100 µM (inactive) |  |  |  | 
